Laboratory results taken from PubChem BioAssay AID248 (DTP/NCI, 2004).
“And” between values parts separate entries of the source, which are not always exact repeats. Equal values may be shown once. Toxic doses and inconclusive results are not listed. No stated cut-off is given here; in the data, active means T/C of 150% or more; inactive means T/C below 125%.

Tested on: L1210 leukemia ip in BDF1 mice, survival T/C
Assay: NCI In Vivo Anticancer Drug Screen. Data for tumor model L1210 Leukemia (intraperitoneal) in B6D2F1 (BDF1) mice
Conditions: endpoint: mean survival time, higher = longer survival
Outline: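 Transplantable tumor model; survival measured in treated vs vehicle control mice. Value = treated/control.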

[1] = dose: 100.0 mg/kg/injection, schedule: Q01DX009 (ip), vehicle: Klucel (hydroxypropylcellulose) (HPC)
[2] = dose: 100.0 mg/kg/injection, schedule: Q04DX003 (ip), vehicle: Klucel (hydroxypropylcellulose) (HPC)
[3] = dose: 200.0 mg/kg/injection, schedule: Q01DX009 (ip), vehicle: Klucel (hydroxypropylcellulose) (HPC)
[4] = dose: 200.0 mg/kg/injection, schedule: Q04DX003 (ip), vehicle: Klucel (hydroxypropylcellulose) (HPC)
[5] = dose: 400.0 mg/kg/injection, schedule: Q04DX003 (ip), vehicle: Klucel (hydroxypropylcellulose) (HPC)
[6] = dose: 100.0 mg/kg/injection, schedule: Q01DX001 (ip), vehicle: carboxymethylcellulose (CMC)
[7] = dose: 200.0 mg/kg/injection, schedule: Q01DX001 (ip), vehicle: carboxymethylcellulose (CMC)
[8] = dose: 400.0 mg/kg/injection, schedule: Q01DX001 (ip), vehicle: carboxymethylcellulose (CMC)
[9] = dose: 400.0 mg/kg/injection, schedule: Q01DX009 (ip), vehicle: Klucel (hydroxypropylcellulose) (HPC)
[10] = dose: 100.0 mg/kg/injection, schedule: Q04DX003 (ip), vehicle: saline with Tween-80
[11] = dose: 200.0 mg/kg/injection, schedule: Q04DX003 (ip), vehicle: saline with Tween-80
[12] = dose: 400.0 mg/kg/injection, schedule: Q04DX003 (ip), vehicle: saline with Tween-80
[13] = dose: 100.0 mg/kg/injection, schedule: Q01DX001 (ip), vehicle: Klucel (hydroxypropylcellulose) (HPC)
[14] = dose: 200.0 mg/kg/injection, schedule: Q01DX001 (ip), vehicle: Klucel (hydroxypropylcellulose) (HPC)
[15] = dose: 400.0 mg/kg/injection, schedule: Q01DX001 (ip), vehicle: Klucel (hydroxypropylcellulose) (HPC)
[16] = dose: 100.0 mg/kg/injection, schedule: Q04DX002 (ip), vehicle: saline with Tween-80
[17] = dose: 200.0 mg/kg/injection, schedule: Q04DX002 (ip), vehicle: saline with Tween-80
[18] = dose: 400.0 mg/kg/injection, schedule: Q04DX002 (ip), vehicle: saline with Tween-80
[19] = dose: 200.0 mg/kg/injection, schedule: Q01DX001 (ip), vehicle: saline

Measured: T/C

CNC(=O)c1ccc[n+](Cc2ccccc2)c1
inactive: dose: 18.75 mg/kg/injection, schedule: Q01DX009 (ip), vehicle: saline 94 % of control | dose: 37.5 mg/kg/injection, schedule: Q01DX009 (ip), vehicle: saline 100 % of control | dose: 37.5 mg/kg/injection, schedule: Q04DX003 (ip), vehicle: saline 97 % of control | dose: 75.0 mg/kg/injection, schedule: Q01DX001 (ip), vehicle: saline 106 % of control | dose: 75.0 mg/kg/injection, schedule: Q01DX009 (ip), vehicle: saline 92 % of control | dose: 75.0 mg/kg/injection, schedule: Q04DX003 (ip), vehicle: saline 101 % of control | dose: 150.0 mg/kg/injection, schedule: Q01DX001 (ip), vehicle: saline 101 % of control | dose: 150.0 mg/kg/injection, schedule: Q04DX003 (ip), vehicle: saline 100 % of control

O=C(Nc1ccc([N+](=O)[O-])cc1Cl)Oc1ccc2ccccc2c1
inactive: [1] 92 % of control | [2] 100 % of control | [3] 87 % of control | [4] 97 % of control | [5] 100 % of control

O=C(C=P(c1ccccc1)(c1ccccc1)c1ccccc1)c1ccc(Br)cc1
inactive: dose: 50.0 mg/kg/injection, schedule: Q01DX001 (ip), vehicle: carboxymethylcellulose (CMC) 99 % of control | [6] 99 % of control | [7] 96 % of control | [8] 99 % of control

BrC(c1ccccc1)C(Br)c1ccccc1 (configuration not stated)
inactive: [1] 86 % of control | [2] 92 % of control | [3] 96 % of control | [4] 94 % of control | [9] 91 % of control | [5] 100 % of control

O=C(NO)c1cc(Cl)c(C(=O)NO)cc1Cl
inactive: dose: 100.0 mg/kg/injection, schedule: Q01DX009 (ip), vehicle: other 93 % of control | dose: 100.0 mg/kg/injection, schedule: Q04DX003 (ip), vehicle: saline 102 % of control | dose: 200.0 mg/kg/injection, schedule: Q01DX009 (ip), vehicle: other 95 % of control | dose: 200.0 mg/kg/injection, schedule: Q04DX003 (ip), vehicle: saline 102 % of control | dose: 400.0 mg/kg/injection, schedule: Q04DX003 (ip), vehicle: saline 97 % of control

O=C(CN1CCOCC1)Nc1ccc(S(=O)(=O)c2ccc(Cl)cc2)cc1
inactive: [10] 101 % of control | [11] 101 % of control | [12] 95 % of control

O=[N+]([O-])c1c(Cl)cc(Cl)c([N+](=O)[O-])c1Cl
inactive: [2] 94 % of control | [4] 90 % of control | [5] 94 % of control

COc1cc(C(C)=O)cc(OC)c1OC
inactive: [10] 102 % of control | [11] 96 % of control | [12] 98 % of control

Nc1cccc(OCCCn2cc(-c3ccc(Cl)c(Cl)c3)c(N)nc2=O)c1
inactive: [13] 99 % of control | [14] 92 % of control | [15] 100 % of control

Nc1n[nH]c(=S)n1-c1ccc(Cl)cc1
inactive: [10] 88 % of control | [11] 93 % of control | [12] 93 % of control

CN1CCNC(=O)CC1
inactive: dose: 25.0 mg/kg/injection, schedule: Q01DX009 (ip), vehicle: water 106 % of control | dose: 50.0 mg/kg/injection, schedule: Q01DX009 (ip), vehicle: water 102 % of control | dose: 100.0 mg/kg/injection, schedule: Q01DX009 (ip), vehicle: water 98 % of control | dose: 200.0 mg/kg/injection, schedule: Q01DX009 (ip), vehicle: water 114 % of control

COc1cc(N=CN(C)C)cc(OC)c1OC
inactive: [1] 101 % of control | [2] 97 % of control | [3] 103 % of control | [4] 97 % of control | [9] 103 % of control | [5] 93 % of control

COc1ccc(C=NC(C)(C)CO)cc1
inactive: dose: 100.0 mg/kg/injection, schedule: Q01DX001 (ip), vehicle: steriod suspending solution 114 % of control | dose: 200.0 mg/kg/injection, schedule: Q01DX001 (ip), vehicle: steriod suspending solution 90 % of control | dose: 400.0 mg/kg/injection, schedule: Q01DX001 (ip), vehicle: steriod suspending solution 97 % of control

Cc1ccc(S(=O)NOCCCCONS(=O)c2ccc(C)cc2)cc1 (configuration not stated)
inactive: dose: 100.0 mg/kg/injection, schedule: Q01DX001 (ip), vehicle: saline with Tween-80 98 % of control | dose: 100.0 mg/kg/injection, schedule: Q01DX009 (ip), vehicle: saline with Tween-80 100 % of control and 89 % of control | [16] 96 % of control and 91 % of control | dose: 200.0 mg/kg/injection, schedule: Q01DX001 (ip), vehicle: saline with Tween-80 95 % of control | dose: 200.0 mg/kg/injection, schedule: Q01DX009 (ip), vehicle: saline with Tween-80 86 % of control and 87 % of control | [17] 93 % of control and 98 % of control | dose: 400.0 mg/kg/injection, schedule: Q01DX001 (ip), vehicle: saline with Tween-80 106 % of control | dose: 400.0 mg/kg/injection, schedule: Q01DX009 (ip), vehicle: saline with Tween-80 90 % of control | [18] 104 % of control and 105 % of control

O=C(O)C1CCC(C(=O)c2ccc([N+](=O)[O-])cc2)CC1 (configuration not stated)
inactive: dose: 100.0 mg/kg/injection, schedule: Q04DX003 (ip), vehicle: gum acacia 97 % of control | dose: 200.0 mg/kg/injection, schedule: Q04DX003 (ip), vehicle: gum acacia 93 % of control | dose: 400.0 mg/kg/injection, schedule: Q04DX003 (ip), vehicle: gum acacia 88 % of control

COc1ccc(OC)c(NC(=O)Oc2cc(C)c(Cl)c(C)c2)c1
inactive: [16] 93 % of control | [17] 96 % of control | [18] 101 % of control

CC1NC(=O)NC1CCCCCC(=O)O (configuration not stated)
inactive: dose: 50.0 mg/kg/injection, schedule: Q01DX001 (ip), vehicle: Klucel (hydroxypropylcellulose) (HPC) 98 % of control | [13] 98 % of control | [6] 97 % of control | [14] 96 % of control | [7] 98 % of control | [8] 97 % of control

OCC1OC(n2ccc3c([Se])ncnc32)C(O)C1O (configuration not stated)
inactive: dose: 12.5 mg/kg/injection, schedule: Q01DX005 (ip), vehicle: saline 119 % of control | dose: 25.0 mg/kg/injection, schedule: Q01DX005 (ip), vehicle: saline 122 % of control | dose: 50.0 mg/kg/injection, schedule: Q01DX005 (ip), vehicle: saline 115 % of control | dose: 100.0 mg/kg/injection, schedule: Q01DX005 (ip), vehicle: saline 122 % of control

CC(C)CC1NC(C)(C)N(CC(=O)O)C1=O (configuration not stated)
inactive: dose: 50.0 mg/kg/injection, schedule: Q01DX001 (ip), vehicle: saline 88 % of control | [19] 99 % of control

O=c1c2[nH]c3cccc(Cl)c3c2cnn1-c1ccc(F)cc1
inactive: [13] 96 % of control | [14] 104 % of control | [15] 104 % of control

O=C(O)C(F)(F)C(F)(F)C(F)(F)F
inactive: dose: 100.0 mg/kg/injection, schedule: Q01DX001 (ip), vehicle: saline 105 % of control | [19] 103 % of control | dose: 400.0 mg/kg/injection, schedule: Q01DX001 (ip), vehicle: saline 92 % of control

COc1ccc(OC)c(NC(=O)Oc2ccc(SC)cc2)c1
inactive: [2] 86 % of control | [4] 88 % of control | [5] 86 % of control

COC(=O)C(Br)C(=O)OC
inactive: dose: 12.5 mg/kg/injection, schedule: Q04DX002 (ip), vehicle: saline with Tween-80 97 % of control | dose: 25.0 mg/kg/injection, schedule: Q04DX002 (ip), vehicle: saline with Tween-80 97 % of control

COc1cc2c3c(c1)C(=O)CCN3CCC2
inactive: [2] 93 % of control | [4] 93 % of control

Cc1cccc2c(N3CCOCC3)c3c(nc12)CCCCC3
inactive: [10] 96 % of control | [11] 95 % of control | [12] 101 % of control

COC(=O)/C=C/c1ccc(Cl)cc1
inactive: [1] 98 % of control | [3] 96 % of control | [9] 96 % of control
